Experimental data published in ChEMBL document CHEMBL1201862, “PubChem BioAssay data set” (2004).
Values belong to the compound of their own block, whether it stands above or below them. Active and inactive are the calls of the source.

Assays:
fMet-Leu-Phe receptor = target: T1, fMet-Leu-Phe receptor (Homo sapiens, UniProt P21462); assay: FPR ligands, dose response (AID 519); format: functional
T1 sequence (P21462 whole entry): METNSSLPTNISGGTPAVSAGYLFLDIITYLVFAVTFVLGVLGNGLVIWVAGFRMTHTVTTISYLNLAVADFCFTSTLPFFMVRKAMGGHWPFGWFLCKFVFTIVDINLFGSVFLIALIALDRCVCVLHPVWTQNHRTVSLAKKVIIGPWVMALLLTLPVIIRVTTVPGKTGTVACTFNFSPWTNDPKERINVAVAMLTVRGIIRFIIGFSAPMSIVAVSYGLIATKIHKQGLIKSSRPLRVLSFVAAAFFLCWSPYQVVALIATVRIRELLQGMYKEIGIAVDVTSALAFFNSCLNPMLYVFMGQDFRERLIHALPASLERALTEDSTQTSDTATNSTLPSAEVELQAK

Galanin receptor type 3 = target: T2, Galanin receptor type 3 (Homo sapiens, UniProt O60755); assay: Fluorescence-based cell-based primary high throughput dose response assay to identify antagonists of the Galanin Receptor 3 (GalR3).; format: functional
T2 sequence (O60755 whole entry): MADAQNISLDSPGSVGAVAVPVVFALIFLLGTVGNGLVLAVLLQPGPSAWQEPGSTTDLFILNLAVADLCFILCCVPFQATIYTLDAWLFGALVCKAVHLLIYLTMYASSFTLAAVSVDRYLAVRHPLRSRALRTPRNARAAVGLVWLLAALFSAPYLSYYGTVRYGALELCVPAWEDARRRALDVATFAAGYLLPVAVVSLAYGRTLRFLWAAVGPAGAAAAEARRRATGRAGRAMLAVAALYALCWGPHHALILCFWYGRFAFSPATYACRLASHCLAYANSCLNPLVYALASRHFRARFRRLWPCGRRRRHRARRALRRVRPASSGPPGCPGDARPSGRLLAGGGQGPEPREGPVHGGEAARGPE

cells = format: functional, cell-based; conditions: HEK-CNG
[1] = target: T3, Corticotropin-releasing factor receptor 2/Corticotropin-releasing factor-binding protein (Homo sapiens, UniProt P24387+Q13324); assay: Dose Response confirmation of uHTS hits for small molecule antagonists of the CRF-binding protein and CRF-R2 receptor complex.; format: functional; conditions: read-out: IC50_Mean
T3 sequence (Q13324 whole entry): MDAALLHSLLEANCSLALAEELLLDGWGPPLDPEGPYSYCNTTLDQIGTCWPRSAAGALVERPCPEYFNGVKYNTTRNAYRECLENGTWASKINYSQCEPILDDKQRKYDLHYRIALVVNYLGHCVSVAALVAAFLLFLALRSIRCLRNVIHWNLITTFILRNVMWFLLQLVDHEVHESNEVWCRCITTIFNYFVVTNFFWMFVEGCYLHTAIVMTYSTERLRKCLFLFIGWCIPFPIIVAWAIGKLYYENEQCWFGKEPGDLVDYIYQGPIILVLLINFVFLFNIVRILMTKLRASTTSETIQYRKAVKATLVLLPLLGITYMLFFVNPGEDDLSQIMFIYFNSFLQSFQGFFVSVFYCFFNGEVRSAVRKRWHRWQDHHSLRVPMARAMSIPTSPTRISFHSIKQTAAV
T3 sequence (P24387 whole entry): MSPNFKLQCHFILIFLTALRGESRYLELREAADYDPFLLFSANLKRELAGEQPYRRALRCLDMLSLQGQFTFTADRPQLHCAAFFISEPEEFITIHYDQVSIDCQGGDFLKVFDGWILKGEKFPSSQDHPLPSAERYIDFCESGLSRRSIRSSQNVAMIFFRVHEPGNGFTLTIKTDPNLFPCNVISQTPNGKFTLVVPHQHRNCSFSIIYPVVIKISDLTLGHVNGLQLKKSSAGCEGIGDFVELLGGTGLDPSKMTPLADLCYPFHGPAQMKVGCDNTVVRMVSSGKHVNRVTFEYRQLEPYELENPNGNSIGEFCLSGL

Beta-galactosidase = Beta-galactosidase (Escherichia coli, UniProt Q8VNN2); assay: Dose response counterscreen for EBI2 assay utilizing the enzyme, b-galactosidase.; format: functional
[2] = target: T3, Corticotropin-releasing factor receptor 2/Corticotropin-releasing factor-binding protein; assay: activators of CRF receptor 2 with binding protein – uHTS hits, confirmation (AID 602473); format: functional; conditions: read-out: EC50_Mean
Cytochrome P450 1A2 = target: T4, Cytochrome P450 1A2 (Homo sapiens, UniProt P05177);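 note: PubChem cytochrome P450 panel assay, CYP1A2 panel member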
T4 sequence (P05177 whole entry): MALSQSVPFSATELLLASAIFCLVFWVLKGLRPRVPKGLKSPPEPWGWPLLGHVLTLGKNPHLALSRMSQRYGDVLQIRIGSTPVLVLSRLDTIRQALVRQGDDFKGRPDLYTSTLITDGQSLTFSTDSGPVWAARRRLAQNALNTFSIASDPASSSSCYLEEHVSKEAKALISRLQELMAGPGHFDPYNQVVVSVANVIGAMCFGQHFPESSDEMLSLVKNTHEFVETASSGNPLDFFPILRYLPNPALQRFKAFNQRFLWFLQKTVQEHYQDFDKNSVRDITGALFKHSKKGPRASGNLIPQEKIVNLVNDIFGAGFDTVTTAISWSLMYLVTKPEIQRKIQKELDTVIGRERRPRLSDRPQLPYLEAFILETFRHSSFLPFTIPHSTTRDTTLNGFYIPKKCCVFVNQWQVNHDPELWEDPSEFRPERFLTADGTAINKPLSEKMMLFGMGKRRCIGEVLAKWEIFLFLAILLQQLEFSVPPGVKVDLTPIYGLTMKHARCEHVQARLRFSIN

Cytochrome P450 3A4 = Cytochrome P450 3A4 (Homo sapiens, UniProt P08684);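 note: CYP3A4 tested as one member of a cytochrome P450 panel screen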
[3] = Luminescence Cell-Based Dose Confirmation HTS to Identify Inhibitors of Platelet Dense Granule Release. [Related pubchem assays: 1663 (Primary HTS), 1678 (Summary of Project)]; format: functional
[4] = target: Luciferin 4-monooxygenase (Photinus pyralis, UniProt P08659); assay: firefly luciferase enzyme inhibitors, dose response, biochemical, luminescence (AID 1891)
Luciferin 4-monooxygenase, sequence (P08659 whole entry): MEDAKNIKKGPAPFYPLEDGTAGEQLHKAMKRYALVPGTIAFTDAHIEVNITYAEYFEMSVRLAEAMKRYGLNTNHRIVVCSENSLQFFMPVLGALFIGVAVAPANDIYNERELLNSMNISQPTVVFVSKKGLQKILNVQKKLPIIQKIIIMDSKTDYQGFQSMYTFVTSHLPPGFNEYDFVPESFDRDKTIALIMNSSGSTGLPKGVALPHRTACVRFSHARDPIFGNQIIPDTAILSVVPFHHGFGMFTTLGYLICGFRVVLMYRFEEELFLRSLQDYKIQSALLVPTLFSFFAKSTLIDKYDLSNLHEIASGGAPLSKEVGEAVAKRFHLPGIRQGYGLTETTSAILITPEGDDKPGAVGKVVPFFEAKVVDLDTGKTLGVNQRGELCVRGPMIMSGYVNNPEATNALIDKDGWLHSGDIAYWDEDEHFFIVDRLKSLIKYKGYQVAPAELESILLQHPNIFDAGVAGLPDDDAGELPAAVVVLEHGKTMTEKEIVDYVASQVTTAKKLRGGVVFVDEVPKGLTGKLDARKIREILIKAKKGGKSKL

Beta-galactosidase, sequence (Q8VNN2 whole entry): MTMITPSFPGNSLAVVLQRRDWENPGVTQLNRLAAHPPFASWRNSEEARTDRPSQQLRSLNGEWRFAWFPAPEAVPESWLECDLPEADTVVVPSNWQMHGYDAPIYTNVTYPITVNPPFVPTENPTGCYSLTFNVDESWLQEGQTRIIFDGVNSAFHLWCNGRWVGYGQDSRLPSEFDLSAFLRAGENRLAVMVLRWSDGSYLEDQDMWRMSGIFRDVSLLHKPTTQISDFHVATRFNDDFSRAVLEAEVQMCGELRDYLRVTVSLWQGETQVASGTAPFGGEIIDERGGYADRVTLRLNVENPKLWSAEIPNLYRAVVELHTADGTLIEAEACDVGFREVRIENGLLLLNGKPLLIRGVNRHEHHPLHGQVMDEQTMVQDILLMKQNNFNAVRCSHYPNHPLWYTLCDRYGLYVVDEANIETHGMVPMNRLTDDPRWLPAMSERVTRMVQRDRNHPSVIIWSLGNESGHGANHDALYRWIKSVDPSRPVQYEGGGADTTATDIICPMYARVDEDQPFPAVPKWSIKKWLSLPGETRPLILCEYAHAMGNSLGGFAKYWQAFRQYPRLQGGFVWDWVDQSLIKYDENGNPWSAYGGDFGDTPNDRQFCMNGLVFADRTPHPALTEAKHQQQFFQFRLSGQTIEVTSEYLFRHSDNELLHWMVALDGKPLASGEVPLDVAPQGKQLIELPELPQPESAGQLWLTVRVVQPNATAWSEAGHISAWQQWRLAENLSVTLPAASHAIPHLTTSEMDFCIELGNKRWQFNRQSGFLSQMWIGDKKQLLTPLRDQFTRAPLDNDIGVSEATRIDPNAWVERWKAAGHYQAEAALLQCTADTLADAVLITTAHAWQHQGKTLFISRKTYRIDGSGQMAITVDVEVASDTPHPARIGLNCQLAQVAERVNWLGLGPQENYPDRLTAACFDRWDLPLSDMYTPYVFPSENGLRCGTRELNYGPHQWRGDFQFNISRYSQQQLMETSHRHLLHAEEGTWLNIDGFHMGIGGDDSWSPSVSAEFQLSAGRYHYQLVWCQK
Cytochrome P450 3A4, sequence (P08684 whole entry): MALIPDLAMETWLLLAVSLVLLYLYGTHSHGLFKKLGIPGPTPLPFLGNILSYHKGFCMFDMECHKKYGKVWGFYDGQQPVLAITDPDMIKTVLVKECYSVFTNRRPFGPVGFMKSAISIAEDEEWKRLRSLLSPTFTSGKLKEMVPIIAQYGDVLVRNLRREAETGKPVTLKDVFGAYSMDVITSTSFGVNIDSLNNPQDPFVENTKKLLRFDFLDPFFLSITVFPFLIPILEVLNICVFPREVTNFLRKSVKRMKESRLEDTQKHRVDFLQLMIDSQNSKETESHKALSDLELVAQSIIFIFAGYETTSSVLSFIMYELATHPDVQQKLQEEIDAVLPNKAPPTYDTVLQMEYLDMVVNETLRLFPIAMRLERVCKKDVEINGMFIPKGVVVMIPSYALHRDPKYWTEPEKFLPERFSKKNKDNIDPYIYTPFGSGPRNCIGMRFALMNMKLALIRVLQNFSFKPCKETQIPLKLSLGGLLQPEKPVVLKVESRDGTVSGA

Ki (fMet-Leu-Phe receptor): 47.9 µM (inactive)
SMILES: Cc1ccc(C2C3=C(O)CC(C)(C)CC3=Nc3nc(S)nc(O)c32)cc1 (stereo not drawn)

AC50 (Cytochrome P450 1A2): 31.6 µM (inconclusive) | Ki (fMet-Leu-Phe receptor): 19 µM (inactive) | AC50 (Cytochrome P450 3A4): 25.1 µM (inconclusive)
SMILES: COc1ccc(CCN2C(=O)C(O)=C(C(=O)c3ccco3)C2c2cccs2)cc1OC (stereo not drawn)

Ki (fMet-Leu-Phe receptor): 12 µM (active)
SMILES: CCC(=O)Nc1c(C#N)c2nc3ccccc3nc2n1-c1ccccc1C

More lines, now with the values behind:

SMILES: COc1ccc(-n2c(C)cc(C(=O)COC(=O)Cn3cnc4ccccc43)c2C)cc1
IC50 (Galanin receptor type 3): 762 nM (active) | EC50 (cells): > 29.9 µM (inactive)

SMILES: COc1ccc(N2CCN(C(=O)c3cc(=O)c4cc(C)c(C)cc4o3)CC2)cc1
IC50 [1]: > 47.1 µM (inactive) | IC50 (Beta-galactosidase): > 80 µM (inactive) | EC50 [2]: > 53 µM (inactive)

SMILES: O=C(c1cc2cc(F)ccc2[nH]1)N1CCN(Cc2ccc3c(c2)OCO3)CC1
EC50 [3]: > 112 µM (not active) | IC50 (Beta-galactosidase): > 80 µM (inactive) | EC50 [4]: > 112 µM (not active)
